Results: ChEMBL document CHEMBL4177690, “(E)-3-(3,4,5-Trimethoxyphenyl)-1-(pyridin-4-yl)prop-2-en-1-one, a heterocyclic chalcone is a potent and selective CYP1A1 inhibitor and cancer chemopreventive agent” (Bioorg Med Chem Lett, 2017)

Tests used:
Homo sapiens [1] = species: Homo sapiens; assay: Selectivity ratio of IC50 for recombinant human CYP2C9 to IC50 for recombinant human CYP1A1
Cytochrome P450 3A4 = Cytochrome P450 3A4 (Homo sapiens, UniProt P08684); assay: Inhibition of recombinant human CYP3A4 expressed in HEK293 cells using dibenzylfluorescein as substrate pretreated for 30 mins followed by substrate addition measured for 60 mins by fluorescence assay; format: ADME
Cytochrome P450 3A4, sequence (P08684 whole entry): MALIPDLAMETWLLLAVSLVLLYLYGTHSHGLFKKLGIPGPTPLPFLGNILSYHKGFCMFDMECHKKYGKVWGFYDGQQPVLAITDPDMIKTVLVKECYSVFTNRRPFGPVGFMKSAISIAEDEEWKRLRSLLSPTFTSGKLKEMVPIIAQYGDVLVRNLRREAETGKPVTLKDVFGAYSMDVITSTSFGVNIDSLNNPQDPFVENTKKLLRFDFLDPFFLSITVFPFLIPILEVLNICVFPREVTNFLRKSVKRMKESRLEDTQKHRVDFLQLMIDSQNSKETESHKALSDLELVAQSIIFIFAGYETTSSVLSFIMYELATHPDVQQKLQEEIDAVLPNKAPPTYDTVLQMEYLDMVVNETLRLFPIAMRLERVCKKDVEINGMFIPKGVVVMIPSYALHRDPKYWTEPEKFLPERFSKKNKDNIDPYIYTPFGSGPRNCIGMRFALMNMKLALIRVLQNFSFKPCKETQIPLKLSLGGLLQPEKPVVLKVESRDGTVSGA

Cytochrome P450 1A1 [2] = biological target: T1, Cytochrome P450 1A1 (Homo sapiens, UniProt P04798); assay: Time-dependent inhibition of recombinant human CYP1A1 expressed in HEK293 cells using 7-ethoxyresorufin as substrate
T1 sequence (P04798 whole entry): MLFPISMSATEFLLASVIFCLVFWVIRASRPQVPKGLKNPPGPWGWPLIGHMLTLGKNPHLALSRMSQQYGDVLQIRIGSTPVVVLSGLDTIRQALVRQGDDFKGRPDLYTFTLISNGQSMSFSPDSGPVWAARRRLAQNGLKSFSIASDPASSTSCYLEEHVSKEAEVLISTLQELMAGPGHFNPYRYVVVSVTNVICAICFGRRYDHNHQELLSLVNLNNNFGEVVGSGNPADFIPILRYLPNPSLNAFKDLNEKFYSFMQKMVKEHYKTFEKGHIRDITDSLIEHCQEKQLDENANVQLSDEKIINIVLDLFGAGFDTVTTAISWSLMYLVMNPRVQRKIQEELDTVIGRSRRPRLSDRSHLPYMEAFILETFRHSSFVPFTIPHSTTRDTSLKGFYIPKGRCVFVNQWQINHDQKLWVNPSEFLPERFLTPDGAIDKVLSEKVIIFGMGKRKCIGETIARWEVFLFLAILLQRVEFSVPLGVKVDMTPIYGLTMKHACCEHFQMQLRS

Cytochrome P450 1B1 = biological target: T2, Cytochrome P450 1B1 (Homo sapiens, UniProt Q16678); assay: Inhibition of human CYP1B1 expressed in yeast cells; format: cell-based
T2 sequence (Q16678 whole entry): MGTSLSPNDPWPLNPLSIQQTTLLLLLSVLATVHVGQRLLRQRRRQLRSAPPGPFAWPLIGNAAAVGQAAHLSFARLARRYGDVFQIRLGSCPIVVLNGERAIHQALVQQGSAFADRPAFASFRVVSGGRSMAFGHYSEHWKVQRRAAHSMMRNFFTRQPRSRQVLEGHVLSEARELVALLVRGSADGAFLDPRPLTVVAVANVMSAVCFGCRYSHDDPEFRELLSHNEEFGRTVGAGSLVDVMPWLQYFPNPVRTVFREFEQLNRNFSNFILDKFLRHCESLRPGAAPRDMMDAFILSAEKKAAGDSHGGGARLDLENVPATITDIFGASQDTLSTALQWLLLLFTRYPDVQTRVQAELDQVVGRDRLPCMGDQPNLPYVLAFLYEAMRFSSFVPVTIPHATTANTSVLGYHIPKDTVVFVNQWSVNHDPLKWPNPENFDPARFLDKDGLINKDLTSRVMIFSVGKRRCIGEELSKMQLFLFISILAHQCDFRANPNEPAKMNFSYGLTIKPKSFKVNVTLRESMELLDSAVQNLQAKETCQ

Cytochrome P450 1A2 [3] = biological target: T3, Cytochrome P450 1A2 (Homo sapiens, UniProt P05177); assay: Inhibition of human CYP1A2 expressed in yeast microsomal membranes using 3-cyano-7-ethoxycoumarin as substrate measured after 10 mins by fluorescence assay; format: ADME, cell membranes, Microsomal Membrane
T3 sequence (P05177 whole entry): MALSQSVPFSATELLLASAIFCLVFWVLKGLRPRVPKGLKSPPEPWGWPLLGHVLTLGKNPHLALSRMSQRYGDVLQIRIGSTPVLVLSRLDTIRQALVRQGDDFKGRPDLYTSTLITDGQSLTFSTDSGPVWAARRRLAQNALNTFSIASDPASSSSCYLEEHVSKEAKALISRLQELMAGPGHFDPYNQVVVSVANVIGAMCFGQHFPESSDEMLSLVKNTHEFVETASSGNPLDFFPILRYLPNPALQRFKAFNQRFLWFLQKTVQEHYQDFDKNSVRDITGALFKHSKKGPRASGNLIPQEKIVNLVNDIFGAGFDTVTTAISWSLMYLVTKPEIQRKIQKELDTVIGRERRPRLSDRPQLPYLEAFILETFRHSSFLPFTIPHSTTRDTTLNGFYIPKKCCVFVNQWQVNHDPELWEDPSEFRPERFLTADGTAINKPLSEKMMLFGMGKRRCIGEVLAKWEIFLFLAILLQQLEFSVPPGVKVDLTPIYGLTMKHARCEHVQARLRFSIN

Cytochrome P450 2C9 [4] = biological target: T4, Cytochrome P450 2C9 (Homo sapiens, UniProt P11712); assay: Inhibition of human CYP2C9 expressed in yeast microsomal membranes using 3-cyano-7-ethoxycoumarin as substrate measured after 10 mins by fluorescence assay; format: ADME, cell membranes, Microsomal Membrane
T4 sequence (P11712 whole entry): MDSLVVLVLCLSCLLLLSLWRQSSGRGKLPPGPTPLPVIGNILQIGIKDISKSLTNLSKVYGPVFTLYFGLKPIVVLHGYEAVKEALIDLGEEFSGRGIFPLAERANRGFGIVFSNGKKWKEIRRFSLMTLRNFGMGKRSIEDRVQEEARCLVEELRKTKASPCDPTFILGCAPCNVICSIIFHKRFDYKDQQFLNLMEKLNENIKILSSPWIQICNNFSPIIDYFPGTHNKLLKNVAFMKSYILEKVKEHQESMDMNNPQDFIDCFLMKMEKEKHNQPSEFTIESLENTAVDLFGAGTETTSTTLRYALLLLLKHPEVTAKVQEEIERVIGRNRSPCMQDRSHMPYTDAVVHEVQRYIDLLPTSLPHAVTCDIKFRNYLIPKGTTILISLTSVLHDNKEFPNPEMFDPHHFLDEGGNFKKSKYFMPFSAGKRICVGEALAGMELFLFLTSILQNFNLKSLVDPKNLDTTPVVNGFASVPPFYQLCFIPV

Homo sapiens [5] = species: Homo sapiens; assay: Selectivity ratio of IC50 for human CYP1A2 expressed in yeast microsomal membranes to IC50 for human CYP1A1 expressed in yeast microsomal membranes; format: cell membranes
Cytochrome P450 1A1 [6] = biological target: T1, Cytochrome P450 1A1; assay: Inhibition of recombinant human CYP1A1 expressed in HEK293 cells using 7-ethoxyresorufin as substrate pretreated for 30 mins followed by substrate addition measured for 60 mins by fluorescence assay; format: cell-based
Homo sapiens [7] = species: Homo sapiens; assay: Selectivity ratio of IC50 for recombinant human CYP2D6 to IC50 for recombinant human CYP1A1
Cytochrome P450 1A1 [8] = biological target: T1, Cytochrome P450 1A1; assay: Competitive inhibition of human CYP1A1 using 7-ethoxyresorufin as substrate
Cytochrome P450 2D6 = Cytochrome P450 2D6 (Homo sapiens, UniProt P10635); assay: Inhibition of human CYP2D6 expressed in yeast microsomal membranes using 7-ethoxy-methyloxy-3-cyanocoumarin as substrate measured after 10 mins by fluorescence assay; format: ADME, cell membranes, Microsomal Membrane
Cytochrome P450 2D6, sequence (P10635 whole entry): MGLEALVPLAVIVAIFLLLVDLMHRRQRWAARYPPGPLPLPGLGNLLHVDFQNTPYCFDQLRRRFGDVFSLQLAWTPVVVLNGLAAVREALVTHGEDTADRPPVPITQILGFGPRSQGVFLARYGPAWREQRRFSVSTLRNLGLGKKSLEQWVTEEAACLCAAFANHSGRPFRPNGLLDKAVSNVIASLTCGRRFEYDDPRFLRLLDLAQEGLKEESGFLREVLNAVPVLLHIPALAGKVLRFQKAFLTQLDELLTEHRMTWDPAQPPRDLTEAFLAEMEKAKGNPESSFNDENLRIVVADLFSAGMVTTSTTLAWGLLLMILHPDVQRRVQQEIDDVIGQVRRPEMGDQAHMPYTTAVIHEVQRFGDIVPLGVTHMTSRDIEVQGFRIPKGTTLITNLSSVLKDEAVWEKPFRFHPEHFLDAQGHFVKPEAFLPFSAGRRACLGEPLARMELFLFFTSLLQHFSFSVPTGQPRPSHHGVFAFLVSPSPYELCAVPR

Homo sapiens [9] = species: Homo sapiens; assay: Selectivity ratio of IC50 for recombinant human CYP3A4 to IC50 for recombinant human CYP1A1
Homo sapiens [10] = species: Homo sapiens; assay: Selectivity ratio of IC50 for recombinant human CYP2C19 to IC50 for recombinant human CYP1A1
Cytochrome P450 1A2 [11] = biological target: T3, Cytochrome P450 1A2; assay: Inhibition of recombinant human CYP1A2 expressed in HEK293 cells using 3-cyano-7-ethoxycoumarin as substrate pretreated for 30 mins followed by substrate addition measured for 60 mins by fluorescence assay; format: ADME
Cytochrome P450 2C9 [12] = biological target: T4, Cytochrome P450 2C9; assay: Inhibition of recombinant human CYP2C9 expressed in HEK293 cells using 3-cyano-7-ethoxycoumarin as substrate pretreated for 30 mins followed by substrate addition measured for 60 mins by fluorescence assay; format: ADME
Cytochrome P450 2C19 = Cytochrome P450 2C19 (Homo sapiens, UniProt P33261); assay: Inhibition of recombinant human CYP2C19 expressed in HEK293 cells using 3-cyano-7-ethoxycoumarin as substrate pretreated for 30 mins followed by substrate addition measured for 60 mins by fluorescence assay; format: ADME
Cytochrome P450 2C19, sequence (P33261 whole entry): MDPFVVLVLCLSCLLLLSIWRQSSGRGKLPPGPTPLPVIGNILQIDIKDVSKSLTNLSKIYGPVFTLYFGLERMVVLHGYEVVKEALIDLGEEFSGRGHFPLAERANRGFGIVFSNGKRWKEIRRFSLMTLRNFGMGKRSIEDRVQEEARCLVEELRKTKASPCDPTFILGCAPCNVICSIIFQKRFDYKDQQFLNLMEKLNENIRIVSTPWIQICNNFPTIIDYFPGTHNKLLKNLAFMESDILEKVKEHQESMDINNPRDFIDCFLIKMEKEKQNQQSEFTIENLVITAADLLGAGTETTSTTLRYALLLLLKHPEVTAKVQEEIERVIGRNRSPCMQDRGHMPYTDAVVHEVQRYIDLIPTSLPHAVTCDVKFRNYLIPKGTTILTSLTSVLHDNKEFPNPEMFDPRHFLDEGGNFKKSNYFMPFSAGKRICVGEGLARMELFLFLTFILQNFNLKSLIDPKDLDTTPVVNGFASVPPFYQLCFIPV

Homo sapiens [13] = species: Homo sapiens; assay: Selectivity ratio of IC50 for recombinant human CYP1B1 expressed in HEK293 cells to IC50 for recombinant human CYP1A1 expressed in HEK293 cells; format: cell-based

## COc1cc(/C=C/C(=O)c2ccncc2)cc(OC)c1OC
Homo sapiens [1]
  Ratio IC50: > 100
Cytochrome P450 3A4
  IC50: > 10 µM
Cytochrome P450 1A1 [2]
  TDI: Not Active
Cytochrome P450 1B1
  IC50: 6.12 µM
Cytochrome P450 1A2 [3]
  IC50: 1090 nM
Cytochrome P450 2C9 [4]
  IC50: > 20 µM
Homo sapiens [5]
  Ratio IC50: > 10
Cytochrome P450 1A1 [6]
  IC50: 58 nM
Homo sapiens [7]
  Ratio IC50: > 100
Cytochrome P450 1A1 [8]
  Ki: 280 nM
Cytochrome P450 2D6
  IC50: 5 µM
Homo sapiens [9]
  Ratio IC50: > 100
Homo sapiens [10]
  Ratio IC50: > 100
Cytochrome P450 1A2 [11]
  IC50: 1120 nM
Cytochrome P450 2C9 [12]
  IC50: > 10 µM
Cytochrome P450 2C19
  IC50: > 10 µM
Homo sapiens [13]
  Ratio IC50: < 10
